Assay results: PubChem BioAssay AID2009 (NMMLSC, 2009)
pEC50, pKi: −log10 of the molar value. The source made the active and inactive calls.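 Rule for the calls: active = EC50 of 30 microM or lower and a span of response of at least a set limit; inactive = the rest.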

Target: Cdc42 activated mutant (human), GST fusion
Test: activated mutant Cdc42 GTP-binding inhibitors, SAR follow-up, biochemical, oxadiazole analogs, multiplex bead flow cytometry, Ki (AID 2009)
Conditions: Bead-based flow cytometry, Bodipy-FL-GTP binding; for pKi: measured here: Ki calculated from EC50

| SMILES | pEC50 | pKi | EC50 |
| --- | --- | --- | --- |
| Cc1ccc(C)c(N2CCN(C(=O)CCc3nc(-c4ccccc4C)no3)CC2)c1 | 5.81 | 6.62 | – |
| COc1ccc(-c2coc(CCC(=O)N3CCN(c4cc(C)ccc4C)CC3)n2)cc1 | 5.77 | 6.59 | – |
| Cc1ccc(C)c(N2CCN(C(=O)CCc3nc(-c4ccccc4Br)no3)CC2)c1 | 5.92 | 6.74 | – |
| COc1ccc(-c2ccc(CCC(=O)N3CCN(c4cc(C)ccc4C)CC3)o2)cc1 | – | – | > 30000 nM (inactive) |
| COc1ccc(-c2noc(CCC(=O)N3CCN(c4cccc(C)c4C)CC3)n2)cc1 | 5.86 | 6.68 | – |
| COc1ccc(-c2noc(CCC(=O)N3CCN(c4ccc(F)cc4)CC3)n2)cc1 | – | 6.85 | inactive |
| Cc1ccc(-c2noc(CCC(=O)N3CCN(c4cc(C)ccc4C)CC3)n2)cc1 | 5.52 | 6.33 | – |
| COc1ccc(-c2noc(CC(=O)N3CCN(c4cc(C)ccc4C)CC3)n2)cc1 | – | 5.75 | inactive |
| COc1ccc(-c2noc(CCC(=O)N3CCN(c4cccc(F)c4)CC3)n2)cc1 | – | 6.77 | inactive |
| COc1ccc(-c2cccc(CCC(=O)N3CCN(c4cc(C)ccc4C)CC3)c2)cc1 | 5.39 | 6.20 | – |
| Cc1ccc(C)c(N2CCN(C(=O)CCc3nc(-c4ccc(Br)cc4)no3)CC2)c1 | 5.58 | 6.39 | – |
| Cc1ccc(C)c(N2CCN(C(=O)CCc3nc(-c4ccc(C(F)(F)F)cc4)no3)CC2)c1 | 5.30 | 6.11 | – |
| Cc1ccc(C)c(N2CCN(C(=O)CCc3nc(-c4ccccc4)no3)CC2)c1 | 6.21 | 7.00 | – |
| Cc1ccc(C)c(N2CCN(C(=O)CCc3nc(-c4cccc(F)c4)no3)CC2)c1 | 5.73 | 6.55 | – |
| COc1ccc(-c2noc(CCC(=O)N3CCN(c4ccc(Br)cc4)CC3)n2)cc1 | – | – | > 30000 nM (inactive) |
| COc1ccc(-c2ccc(CCC(=O)N3CCN(c4cc(C)ccc4C)CC3)[nH]2)cc1 | – | – | > 30000 nM (inactive) |
| Cc1ccc(C)c(N2CCN(C(=O)CCc3nc(-c4cccc(C(F)(F)F)c4)no3)CC2)c1 | 5.57 | 6.39 | – |
| COc1ccc(-c2noc(CCC(=O)N3CCN(c4ccc(C(F)(F)F)cc4)CC3)n2)cc1 | – | – | > 30000 nM (inactive) |
| COc1ccc(-c2noc(CCC(=O)N3CCN(c4ccccc4)CC3)n2)cc1 | – | 6.96 | inactive |
| Cc1ccc(C)c(N2CCN(C(=O)CCc3nc(-c4ccc(F)cc4)no3)CC2)c1 | 6.18 | 7.00 | – |
| Cc1ccc(C)c(N2CCN(C(=O)CCc3nc(-c4ccccc4F)no3)CC2)c1 | 5.82 | 6.64 | – |
| Cc1ccc(C)c(N2CCN(C(=O)CCc3nc(-c4ccccc4C(F)(F)F)no3)CC2)c1 | 5.77 | 6.59 | – |
| COc1ccc(-c2noc(CCCC(=O)N3CCN(c4cc(C)ccc4C)CC3)n2)cc1 | 5.29 | 6.10 | – |
| COc1ccc(-c2noc(CCC(=O)N3CCN(c4ccccc4C(F)(F)F)CC3)n2)cc1 | 5.70 | 6.51 | – |
| Cc1ccc(C)c(N2CCN(C(=O)CCc3nc(-c4cccc(Br)c4)no3)CC2)c1 | 5.63 | 6.44 | – |
| COc1ccc(-c2noc(CCC(=O)N3CCN(c4ccccc4OC)CC3)n2)cc1 | 5.51 | 6.32 | – |

| SMILES | pEC50 | pKi | EC50 |
| --- | --- | --- | --- |
| COc1ccc(-c2ccc(CCC(=O)N3CCN(c4cc(C)ccc4C)CC3)s2)cc1 | 5.53 | 6.34 | – |
| COc1ccc(-c2noc(CCC(=O)N3CCN(c4cccc(C)c4)CC3)n2)cc1 | 5.63 | 6.44 | – |
| COc1ccc(-c2cc(CCC(=O)N3CCN(c4cc(C)ccc4C)CC3)on2)cc1 | 5.84 | 6.66 | – |
| COc1ccc(-c2noc(CCC(=O)N3CCN(c4ccc(OC)cc4)CC3)n2)cc1 | 6.15 | 6.96 | – |
| COc1ccc(-c2noc(CCC(=O)N3CCN(c4cccc(Cl)c4)CC3)n2)cc1 | 5.15 | 5.96 | – |
| Cc1ccc(C)c(N2CCN(C(=O)CCc3nc(-c4ccc(N(C)C)cc4)no3)CC2)c1 | 5.78 | 6.59 | – |
| COc1ccc(-c2noc(CCCCC(=O)N3CCN(c4cc(C)ccc4C)CC3)n2)cc1 | 4.76 | 5.57 | – |
| COc1ccc(-c2noc(CCC(=O)N3CCN(c4ccc(C)cc4)CC3)n2)cc1 | – | 6.72 | inactive |
| COc1ccccc1-c1noc(CCC(=O)N2CCN(c3cc(C)ccc3C)CC2)n1 | 5.31 | 6.12 | – |
| COc1ccc(-c2noc(CCC(=O)N3CCN(c4ccccc4Br)CC3)n2)cc1 | 5.84 | 6.66 | – |
| Cc1ccc(C)c(N2CCN(C(=O)CCc3nc(-c4ccc(Cl)cc4)no3)CC2)c1 | 5.78 | 6.59 | – |
| COc1ccc(-c2noc(CCC(=O)N3CCN(c4cccc(Br)c4)CC3)n2)cc1 | – | – | > 30000 nM (inactive) |
| COc1ccc(-c2noc(CCC(=O)N3CCN(c4ccccc4C)CC3)n2)cc1 | 5.98 | 6.80 | – |
| COc1cccc(-c2noc(CCC(=O)N3CCN(c4cc(C)ccc4C)CC3)n2)c1 | 5.43 | 6.24 | – |
| Cc1ccc(C)c(N2CCN(C(=O)CCc3nc(-c4cccc(Cl)c4)no3)CC2)c1 | 5.41 | 6.22 | – |
| COc1ccc(-c2noc(CCC(=O)N3CCN(c4ccccc4Cl)CC3)n2)cc1 | 5.69 | 6.51 | – |
| COc1ccc(-c2noc(CCC(=O)N3CCN(c4cccc(C(F)(F)F)c4)CC3)n2)cc1 | – | – | > 30000 nM (inactive) |
| COc1ccc(-c2noc(CCC(=O)N3CCC(c4cc(C)ccc4C)CC3)n2)cc1 | 5.79 | 6.60 | – |
| Cc1cccc(-c2noc(CCC(=O)N3CCN(c4cc(C)ccc4C)CC3)n2)c1 | 5.73 | 6.54 | – |
| Cc1ccc(C)c(N2CCN(C(=O)CCc3nc(-c4ccccc4Cl)no3)CC2)c1 | 6.02 | 6.82 | – |
| COc1ccc(-c2noc(CCC(=O)N3CCN(c4cccc(OC)c4)CC3)n2)cc1 | – | 6.12 | inactive |
| COc1ccc(-c2noc(CCC(=O)N3CCN(c4cc(C)ccc4C)CC3)n2)cc1 | 5.64 | 6.46 | – |
| COc1ccc(-c2cc(CCC(=O)N3CCN(c4cc(C)ccc4C)CC3)[nH]n2)cc1 | – | – | > 30000 nM (inactive) |
| COc1ccc(-c2noc(CCC(=O)N3CCN(c4ccc(Cl)cc4)CC3)n2)cc1 | – | 7.70 | inactive |
| COc1ccc(-c2noc(CCC(=O)N3CCN(c4ccccc4F)CC3)n2)cc1 | 5.97 | 6.77 | – |
